Test results taken from patent US11058688B2, “Imidazopiperazine inhibitors of transcription activating proteins” (Board of Regents, The University of Texas System, priority 2018, dated 2021).

Tests used:
BRD4(49-170) bromodomain = BRD4(49-170) bromodomain (Homo sapiens (Human), UniProt O60885); assay: BRD4 AlphaScreen Assay; details: binding to biotin-H4(1-21) Ac-K5/8/12/16 peptide
Experimental: (§1) Specific binding of the CBP or BRD4 bromodomain to the acetylated peptide derived from the H4 histone substrate (tetra acetylated H4(1-21) Ac-K5/8/12/16) was measured in absence or presence of inhibitors.
(§2) The standard dose response curves were fitted by Genedata Screener software using the variable-slope model: Signal=Signalnegative control+(SignalDMSO control−Signalnegative control)/(1+(IC50/Dose)^Hill slope).
(§3) Only Signal and Dose in the equation were treated as known values.

[1] = biological target: GST-CBP(1081-1197) bromodomain (Homo sapiens (Human), UniProt Q92793); assay: CBP AlphaScreen Assay; details: binding to biotin-H4(1-21) Ac-K5/8/12/16 peptide
Sequence of GST-CBP(1081-1197) bromodomain (Q92793 1081-1197): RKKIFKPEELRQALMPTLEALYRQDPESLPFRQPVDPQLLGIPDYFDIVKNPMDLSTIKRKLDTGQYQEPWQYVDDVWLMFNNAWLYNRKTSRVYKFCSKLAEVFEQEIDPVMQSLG
Experimental: as §1, §2, §3

Structure (SMILES) | IC50 (BRD4(49-170) bromodomain) [nM] | IC50 [1] [nM]
CC(=O)N1CCn2c(C3CC3)nc(N3CCCc4cc(-c5cnn(C6CCOCC6)c5)ccc43)c2C1 [Example 109, 1-(3-cyclopropyl-1-(6-(1-(tetrahydro-2H-pyran-4-yl)-1H-pyrazol-4-yl)-3,4-dihydroquinolin-1(2H)-yl)-5,6-dihydroimidazo[1,5-a]pyrazin-7(8H)-yl)ethan-1-one] | 13800 | 349
CNC(=O)N1CCn2c(C3CC3)nc(-c3cccc4nc(N5CC6(COC6)C5)c(C#N)cc34)c2C1 [Example 102, 1-(3-cyano-2-(2-oxa-6-azaspiro[3.3]heptan-6-yl)quinolin-5-yl)-3-cyclopropyl-N-methyl-5,6-dihydroimidazo[1,5-a]pyrazine-7(8H)-carboxamide] | > 25000 | 19
CC(=O)N1CCn2c(C3CC3)nc(N3CCCc4cc(-c5ccnc(C(F)(F)F)c5)ccc43)c2C1 [Example 118, 1-(3-cyclopropyl-1-(6-(2-(trifluoromethyl)pyridin-4-yl)-3,4-dihydroquinolin-1(2H)-yl)-5,6-dihydroimidazo[1,5-a]pyrazin-7(8H)-yl)ethan-1-one] | > 25000 | 715
CNC(=O)N1CCn2cnc(-c3ccc4c(c3)c(-c3cnn(C)c3)nn4C)c2C1 [Example 11, N-Methyl-1-(1-methyl-3-(1-methyl-1H-pyrazol-4-yl)-1H-indazol-5-yl)-5,6-dihydroimidazo[1,5-a]pyrazine-7(8H)-carboxamide] | > 10000 | 26
CNC(=O)N1CCn2c(C3CC3)nc(-c3c(F)ccc4cc(-c5cn(C)nc5C)ncc34)c2C1 [Example 72, 3-cyclopropyl-1-(3-(1,3-dimethyl-1H-pyrazol-4-yl)-7-fluoroisoquinolin-8-yl)-N-methyl-5,6-dihydroimidazo[1,5-a]pyrazine-7(8H)-carboxamide] | 17100 | 54
CC(=O)N1CCn2c(C3CC3)nc(-c3ccnc4c3cc(-c3cnn(C)c3)n4C)c2C1 [Example 29, 1-(3-Cyclopropyl-1-(1-methyl-2-(1-methyl-1H-pyrazol-4-yl)-1H-pyrrolo[2,3-b]pyridin-4-yl)-5,6-dihydroimidazo[1,5-a]pyrazin-7(8H)-yl)ethan-1-one] | > 25000 | 324
CC(=O)N1CCn2c(C3CC3)nc(N3CCCc4cc(-c5cnn(C6CC6)c5)ccc43)c2C1 [Example 108, 1-(3-cyclopropyl-1-(6-(1-cyclopropyl-1H-pyrazol-4-yl)-3,4-dihydroquinolin-1(2H)-yl)-5,6-dihydroimidazo[1,5-a]pyrazin-7(8H)-yl)ethan-1-one] | 14300 | 148
CNC(=O)N1CCn2c(C3CN(C)C3)nc(-c3ccc4c(c3)c(-c3cnn(C)c3)nn4C)c2C1 [Example 8, N-Methyl-1-(1-methyl-3-(1-methyl-1H-pyrazol-4-yl)-1H-indazol-5-yl)-3-(1-methylazetidin-3-yl)-5,6-dihydroimidazo[1,5-a]pyrazine-7(8H)-carboxamide] | > 10000 | 115
CC(=O)N1CCn2c(C(C)C)nc(-c3ccc4c(c3)c(-c3cnn(C)c3)nn4C)c2C1 [Example 49, 1-(3-isopropyl-1-(1-methyl-3-(1-methyl-1H-pyrazol-4-yl)-1H-indazol-5-yl)-5,6-dihydroimidazo[1,5-a]pyrazin-7(8H)-yl)ethan-1-one] | > 10000 | 67
CNC(=O)N1CCn2c(C3CCC(F)(F)CC3)nc(-c3cccc4nc(-c5cnn(C)c5)c(C#N)cc34)c2C1 [Example 82, 1-(3-cyano-2-(1-methyl-1H-pyrazol-4-yl)quinolin-5-yl)-3-(4,4-difluorocyclohexyl)-N-methyl-5,6-dihydroimidazo[1,5-a]pyrazine-7(8H)-carboxamide] | 17900 | 3
CNC(=O)N1CCn2c(C3CC3)nc(N3CCCc4cc(-c5cnn(C)c5)c(C(F)F)cc43)c2C1 [Example 3, 3-cyclopropyl-1-(7-(difluoromethyl)-6-(1-methyl-1H-pyrazol-4-yl)-3,4-dihydroquinolin-1(2H)-yl)-N-methyl-5,6-dihydroimidazo[1,5-a]pyrazine-7(8H)-carboxamide] | > 10000 | 5
CNC(=O)N1CCn2c(C)nc(-c3ccc4c(c3)c(-c3cnn(C)c3)nn4C)c2C1 [Example 48, N,3-dimethyl-1-(1-methyl-3-(1-methyl-1H-pyrazol-4-yl)-1H-indazol-5-yl)-5,6-dihydroimidazo[1,5-a]pyrazine-7(8H)-carboxamide] | > 10000 | 36
CC(=O)N1CCn2c(C3CC3)nc(-c3ccc4c(c3)c(-c3cnn(C)c3)nn4C)c2C1 [Example 1, 1-(3-cyclopropyl-1-(1-methyl-3-(1-methyl-1H-pyrazol-4-yl)-1H-indazol-5-yl)-5,6-dihydroimidazo[1,5-a]pyrazin-7(8H)-yl)ethan-1-one] | > 10000 | 47
CC(=O)N1CCn2c(C3CC3)nc(-c3cc4c(-c5cnn(C)c5)nn(C)c4cc3F)c2C1 [Example 28, 1-(3-Cyclopropyl-1-(6-fluoro-1-methyl-3-(1-methyl-1H-pyrazol-4-yl)-1H-indazol-5-yl)-5,6-dihydroimidazo[1,5-a]pyrazin-7(8H)-yl)ethan-1-one] | 18600 | 33
CNC(=O)N1CCn2c(C3CCOCC3)nc(-c3cccc4cc(C5CCOCC5)ncc34)c2C1 [Example 68, N-methyl-3-(tetrahydro-2H-pyran-4-yl)-1-(3-(tetrahydro-2H-pyran-4-yl)isoquinolin-8-yl)-5,6-dihydroimidazo[1,5-a]pyrazine-7(8H)-carboxamide] | > 25000 | 16
CNC(=O)N1CCn2c(C3CCOCC3)nc(-c3c(F)ccc4cc(-c5cn(C)nc5C)ncc34)c2C1 [Example 73, 1-(3-(1,3-dimethyl-1H-pyrazol-4-yl)-7-fluoroisoquinolin-8-yl)-N-methyl-3-(tetrahydro-2H-pyran-4-yl)-5,6-dihydroimidazo[1,5-a]pyrazine-7(8H)-carboxamide] | > 25000 | 40
CC(=O)N1CCn2c(C3CC3)nc(-c3ccc4c(cnn4C)c3)c2C1 [Example 43, 1-(3-cyclopropyl-1-(1-methyl-1H-indazol-5-yl)-5,6-dihydroimidazol[1,5-a]pyrazin-7(8H)-yl)ethan-1-one] | > 25000 | 3190
CNC(=O)N1CCn2c(C3CCS(=O)(=O)CC3)nc(-c3ccc4c(c3)c(-c3cnn(C)c3)nn4C)c2C1 [Example 15, 3-(1,1-Dioxothian-4-yl)-N-methyl-1-[1-methyl-3-(1-methylpyrazol-4-yl)indazol-5-yl]-6,8-dihydro-5H-imidazo[1,5-a]pyrazine-7-carboxamide] | 21900 | 46
CNC(=O)N1CCn2c(C3CC3)nc(-c3ccnc4nc(-c5cnn(C)c5)c(C(F)F)cc34)c2C1 [Example 36, 3-Cyclopropyl-1-(6-(difluoromethyl)-7-(1-methyl-1H-pyrazol-4-yl)-1,8-naphthyridin-4-yl)-N-methyl-5,6-dihydroimidazo[1,5-a]pyrazine-7(8H)-carboxamide] | 9710 | 38
CNC(=O)N1CCn2c(C3CC(F)(F)C3)nc(-c3cccc4cc(-c5ccn(C)n5)ncc34)c2C1 [Example 79, 3-(3,3-difluorocyclobutyl)-N-methyl-1-(3-(1-methyl-1H-pyrazol-3-yl)isoquinolin-8-yl)-5,6-dihydroimidazo[1,5-a]pyrazine-7(8H)-carboxamide] | 14800 | 6
CNC(=O)N1CCn2c(C3CCOCC3)nc(-c3c(F)ccc4cc(-c5ccn(C)n5)ncc34)c2C1 [Example 94, 1-(7-fluoro-3-(1-methyl-1H-pyrazol-3-yl)isoquinolin-8-yl)-N-methyl-3-(tetrahydro-2H-pyran-4-yl)-5,6-dihydroimidazo[1,5-a]pyrazine-7(8H)-carboxamide] | > 25000 | 12
CNC(=O)N1CCn2c(C3CC3)nc(-c3cccc4cc(-c5cnc(C)s5)ncc34)c2C1 [Example 23, 3-Cyclopropyl-N-methyl-1-(3-(2-methylthiazol-5-yl)isoquinolin-8-yl)-5,6-dihydroimidazo[1,5-a]pyrazine-7(8H)-carboxamide] | 3850 | 1
CC(=O)N1CCn2c(C3CC3)nc(-c3ccc4nn(C)c(-c5cnn(C)c5)c4c3F)c2C1 [Example 27, 1-(3-Cyclopropyl-1-(4-fluoro-2-methyl-3-(1-methyl-1H-pyrazol-4-yl)-2H-indazol-5-yl)-5,6-dihydroimidazo[1,5-a]pyrazin-7(8H)-yl)ethan-1-one] | > 25000 | 1220
CC(=O)N1CCn2c(C)nc(-c3ccc4c(c3)c(-c3cnn(C)c3)nn4C)c2C1 [Example 47, 1-(3-methyl-1-(1-methyl-3-(1-methyl-1H-pyrazol-4-yl)-1H-indazol-5-yl)-5,6-dihydroimidazo[1,5-a]pyrazin-7(8H)-yl)ethan-1-one] | > 10000 | 153
CNC(=O)c1cc(-c2ccc3c(c2)CCCN3c2nc(C3CC3)n3c2CN(C(C)=O)CC3)ccn1 [Example 117, 4-(1-(7-acetyl-3-cyclopropyl-5,6,7,8-tetrahydroimidazo[1,5-a]pyrazin-1-yl)-1,2,3,4-tetrahydroquinolin-6-yl)-N-methylpicolinamide] | > 25000 | 739
CC(=O)N1CCn2c(C3CC3)nc(N3CCCc4cc(-c5ccnc(N6CCOCC6)c5)ccc43)c2C1 [Example 112, 1-(3-cyclopropyl-1-(6-(2-morpholinopyridin-4-yl)-3,4-dihydroquinolin-1(2H)-yl)-5,6-dihydroimidazo[1,5-a]pyrazin-7(8H)-yl)ethan-1-one] | 21000 | 270
